The text below walks through data of patent US7723370B2, “1, 2-diaryl pyrazoles useful as analgetic and antiinflammatory agents” (Richter Gedeon Vegyeszeti Gyar RT., priority 2005, dated 2010).

Where “and” joins values, the source holds several entries; their conditions need not be identical. Equal values may be shown once. Marks after values point to notes of the source that are not given here. Where only a bound is given, the exact number is not on record here.

Data set [1] deals with acetic acid induced chronic gastric ulcer. Put plainly: Acetic acid induced chronic gastric ulcer in rats. In kind it is in vivo, rat. As to the method: In our experiments the method […] of Okabe et al was used. Male Wistar rats of 150-170 g were narcotize part of the stomach.
The test compound was given p.o. on the fifth day after the operation for seven days. The animals were euthanized with ether after 24 hours of the last dose and the abdomen was macroscopically examined (exravasation, accretion), the stomach was excised and the diameters of ulcers were measured.

Data set [2] deals with carrageenan induced chronic hyperalgesia. Put plainly: Carrageenan induced chronic hyperalgesia model in rats (Randall-Selitto). In kind it is in vivo, rat.
For data set [3] the test system is unchanged. Described as above. In kind it is in vivo, rat. The conditions noted are these: chronic model, 30 mg/kg p.o. As to the method: (§1) Oedema (inflammation) was induced by subcutaneous injection of carrageenan (CARR) suspension in the subplantar region of the right hind paw of male Wistar rats, weighted 140-190 g (n=8-12 animal/group). The nociceptive thresholds of the inflamed hind paw after painful mechanical stimuli were measured with analgesimeter (Ugo Basile, type: 37215, Italy). The apparatus is suitable for the measuring of the extent and the latency of the pain reaction threshold of the sensitized paw after painful stimuli. The analgesics elevate the low pain reaction threshold of inflamed paw and the degree of its antinociceptive effect is expressed in reversal %.
(§2) An increasing pressure was applied to the paw and the withdrawal threshold was determined as the first sign (squeaking and/or struggling) of pain response. The pressure threshold was shown in grams. The average value of the hind paw withdrawal obtained with untreated right paw was regarded as the basal hind paw withdrawal (average 80-110 grams.) After determining the baseline threshold the animals received carrageenan injection that produced an intense inflammation associated with hyperalgesia. The mechanical threshold was determined at various times to establish the magnitude and duration of the hyperalgesia. The maximum reduction in threshold was measured 2-3 h after injection (the pain threshold of the inflamed paw is 20-30 g, which was decreased by 65-80% in comparing to the basic value).
(§3) Acute hvneralgesia model: the animals were treated with the test compounds and celecoxib (10 and 30 mg/kg p.o.) one hour after CARR treatment (100 μl 2% suspension). Pain threshold was measured at 2 and 4 hours after the treatment. Chronic hyperalgesia model: extended inflammation and decreased pain threshold were induced with higher dose of CARR. Pain threshold of inflamed paw was measured 24 hours after CARR treatment (150 μl, 2% suspension) then test compound and Celecoxib (30 mg/kg p.o.) were given to the animals. Pain threshold of treated paw was measured from 30 minutes till 3 hours after treatment.
(§4) Control groups in both models after CARR treatment were treated with vehicle p.o. at the same intervals as the test compounds. In both models the analgesic effect of the compounds was expressed in the reversal (%) of the decrease of the pain threshold. Reversal %=[mean of treated groupTxh(g)−treated groupT0h(g)]/[basic mean of treated groupT-1h(g)−treated groupT0h(g)] • T−1 h=mean of the pain threshold of paw before CARR treatment in acute model (g) • T0h=mean of the pain threshold before treatment 1 hour after CARR treatment in acute model (g) • T×h=pain threshold after CARR treatment in the measuring times (1 h, 2 h, 3 h) in acute model (g)

Data set [4] concerns carrageenan induced paw oedema. Put plainly: Inhibition of carrageenan induced oedema in rats. The conditions noted are these: for ED30: p.o. The data set is classed as in vivo, rat. As to the method: The treated paw was immersed up to the tibio-tarsal articulation into the chamber and the volume of displaced liquid was determined as the degree of the inflammation. Degree of inflammation (ml)=volume after the CARR treatment (ml)−volume before the CARR treatment (ml)
The degree of the anti-inflammatory effect of the treated group (which obtained test agent) was compared to that of the control group (which obtained only vehicle). The test compound and the vehicle were given orally by blunt-ended needle cannula one hour before the CARR treatment. The volume of the treated paw was measured at 3 and 5 hours after the CARR treatment and the change in the degree of inflammation in % was calculated according to the following formula: Anti-inflammatory activity %=100×[control group (ml)−treated group (ml)/control group (ml)]
[…] Anti-inflammatory activity of the compounds was determined in % at 4 and 6 hours after p.o. treatment and ED30 was calculated.

For data set [5], the system named is alcohol induced mucosa injury. Put plainly: Gastric lesions induced by acidified alcohol in rats. The data set is classed as in vivo, rat. The conditions noted are these: for Ulcer index: 40 minutes before ethanol+HCl, n = 10. The protocol: Male Wistar rats weighing 140-160 g were treated p.o. with a 1:0.02 mixture of dry ethanol and concentrated HCl (0.5 ml) in order to induce gastric lesions. One hour later the animals were euthanized with ether and the stomach excised along its greater curvature, the mucosa was examined for the presence of lesions.
Severity of lesions: • 1: petechiae or erosion with length of 1 mm • 2: erosion with length between 2 and 3 mm • 3: erosion with length between 3 and 4 mm • 4: erosion with length between 4 and 5 mm
If the lesion was longer than 5 mm, it was scored 4 point as many times as the total length of the lesion divisible by four and the rest of the length was evaluated according to the above scale. The degree of injury of mucosa was characterized by ulcer index. Ulcer index (severity of lesion×number of lesion) was calculated for every animal and the degree of injury of mucosa in the groups of tested animals was characterized by the mean of ulcer index of different groups of animals.
Test compounds were given p.o. 40 minutes before the ethanol+HCl treatment

In data set [6] the test system is carrageenan induced acute hyperalgesia. Nature of the data set: Carrageenan induced acute hyperalgesia in rats (Randall-Selitto model). In kind it is in vivo, rat. As to the method:
as §1, §2, §3, §4

`Cc1ccc(-c2cc(C(F)(F)F)nn2-c2ccc(S(N)(=O)=O)cc2)cc1` [Celecoxib, reference compound]: the “Area of ulcer (mm^2)” value in data set [1] (30 mg/kg p.o. for seven days) is on record as 8.2 ± 2.0* mm^2. For the same compound, the “Change of bodyweight (g) + (increase) − (decrease)” value in data set [1] (30 mg/kg p.o. for seven days) is “+32 ± 4 g”. Besides, the “Recovery of acetic acid induced ulcer” value in data set [1] (p.o. for seven days) was “inhibited significantly”. Also, the “Analgesic effect (reversal %) after p.o. treatment” value in data set [2] (10 mg/kg p.o., 30 min) is reported as 24%; in data set [2] (10 mg/kg p.o., 1 hour) it was 17%; in data set [2] (10 mg/kg p.o., 2 hour), 0%; in data set [2] (30 mg/kg p.o., 4 hour) it was 20%; in data set [3] (30 min), 54%; in data set [3] (1 hour), 34%. Besides, the “Analgesic effect (reversal %) after p.o. treatment” value in data set [3] (2 hour) is listed as 34%; in data set [3] (3 hour), 26%; in data set [6] (10 mg/kg p.o., 1 hour), 0%; in data set [6] (10 mg/kg p.o., 2 hour) it was 0%; in data set [6] (10 mg/kg p.o., 3 hour) it was 0%; in data set [6] (30 mg/kg p.o., 1 hour), 24%. For the same compound, the “Analgesic effect (reversal %) after p.o. treatment” value in data set [6] (30 mg/kg p.o., 2 hour) was 3%; in data set [6] (30 mg/kg p.o., 3 hour) it was 0%. The “analgesic effect, reversal” value is 54% in data set [3] (time not stated) and 24% in data set [6] (30 mg/kg p.o., time not stated). Also, the “Inhibiton of carrageenan induced edema %” value in data set [4] (3 mg/kg p.o., 4 hours after treatment) came to 16 ± 3%; in data set [4] (3 mg/kg p.o., 6 hours after treatment) it was 12 ± 4%; in data set [4] (10 mg/kg p.o., 4 hours after treatment), 24 ± 4%; in data set [4] (10 mg/kg p.o., 6 hours after treatment), 18 ± 2%; in data set [4] (30 mg/kg p.o., 4 hours after treatment), 32 ± 5%; in data set [4] (30 mg/kg p.o., 6 hours after treatment) it was 26 ± 4%. Also, the “anti-inflammatory activity as compared to the control group” value in data set [4] (6 hours after the treatment) is “less than 30%”. For the same compound, the ED30 in data set [4] (4 hours after treatment) was 23 mg/kg and 23.0 mg/kg; in data set [4] (6 hours after treatment), above 30 mg/kg. The Ulcer index in data set [5] (15 mg/kg p.o.) was 80.6 ± 2.3; in data set [5] (30 mg/kg p.o.), 49.4 ± 4.5; in data set [5] (60 mg/kg p.o.) it was 44.4 ± 6.4. Also, in data set [5] (p.o.), the “effect on alcohol induced mucosa injury” value is “inhibited the alcohol induced mucosa injury”.

The melting point is the temperature, or range, at which the solid turns liquid. As to `Cc1ccc(-c2cc(C(F)(F)F)nn2-c2ccc(S(=O)(=O)NOCC(=O)O)cc2)cc1` [Example 7, [4-(5-p-methylphenyl-3-trifluoromethyl-pyrazol-1-yl)-benzenesulfonylaminooxy]-acetic acid], the melting point fell in the range of 224 to 225 °C.

Regarding `Cc1ccc(-c2cc(C(F)(F)F)nn2-c2ccc(S(=O)(=O)NOC(C)C(=O)[O-])cc2)cc1.[Na+]` (racemic) [Example 6, Disodium (R,S)-2-[4-(5-p-methylphenyl-3-trifluoromethyl-pyrazol-1-yl)-benzenesulfonyl-aminooxy]-propionic acid monohydrate], in data set [4] (CARR induced oedema test), the “anti-inflammatory activity compared with celecoxib” value was “significantly (p<0.05) higher”.

Compound `Cc1ccc(-c2cc(C(F)(F)F)nn2-c2ccc(S(=O)(=O)NOC(=O)c3ccccc3)cc2)cc1` [Example 12, N-benzoyloxy-4-(5-p-methylphenyl-3-trifluoromethyl-pyrazol-1-yl)-benzenesulfonamide] displayed a melting point of 152 to 155 °C.

For the compound `COc1ccc2c(c1)c(CC(=O)O)c(C)n2C(=O)c1ccc(Cl)cc1` [Indometacin], in data set [1] (2.0 mg/kg p.o. for seven days), the “Area of ulcer (mm^2)” value is 39.0 ± 5** mm^2 and the “Change of bodyweight (g) + (increase) − (decrease)” value is reported as “+2 ± 0.6 g”.

In turn, `Cc1ccc(-c2cc(C(F)(F)F)nn2-c2ccc(S(=O)(=O)NOC(=O)C(C)(C)C)cc2)cc1` [Example 13, N-pivaloyloxy-4-(5-p-methylphenyl-3-trifluoromethyl-pyrazol-1-yl)-benzenesulfonamide] came in with a melting point of 134 to 136 °C.

The compound `CCOC(=O)CONS(=O)(=O)c1ccc(-n2nc(C(F)(F)F)cc2-c2ccc(C)cc2)cc1` [Example 8, [4-(5-p-methylphenyl-3-trifluoromethyl-pyrazol-1-yl)-benzenesulfonylaminooxy]-acetic acid ethyl ester] registered a melting point of 143 to 144 °C.

In the case of `CCOC(=O)C(C)ONS(=O)(=O)c1ccc(-n2nc(C(F)(F)F)cc2-c2ccc(C)cc2)cc1` (stereo not drawn) [Example 10, 2-[4-(5-p-methylphenyl-3-trifluoromethyl-pyrazol-1-yl)-benzenesulfonylaminooxy]-propionic acid ethyl ester], the melting point lay within 137 to 138 °C.

In turn, `CC(=O)ONS(=O)(=O)c1ccc(-n2nc(C(F)(F)F)cc2-c2ccc(C)cc2)cc1` [Example 11, N-acetoxy-4-(5-p-methylphenyl-3-trifluoromethyl-pyrazol-1-yl)-benzenesulamide] yielded a melting point of 138 to 140 °C.

Compound `Cc1ccc(-c2cc(C(F)(F)F)nn2-c2ccc(S(=O)(=O)NOCCC(=O)O)cc2)cc1` [Example 9, 3-[4-(5-p-methylphenyl-3-trifluoromethyl-pyrazol-1-yl)-benzenesulfonylaminooxy]-propionic acid] had a melting point of 176 to 178 °C.
